Experimental data: patent US20130344140A1, “NOVEL PHARMACEUTICAL COMBINATIONS AND METHODS FOR TREATING CANCER” (Agency for Science, Technology and Research, priority 2011, published 2013)

Experiments:
Assay type in all cases: cell-based
[1] = test system: cyclins A2 and B1 mRNAs in wild-type HCT116 cells; test: qRT-PCR of transcript levels in HCT116 cells treated with VX-680; conditions: VX-680-treated wild-type HCT116 (not in p53−/− or p21−/− cells)
Experimental: It is noteworthy that cyclins A2 and B1 levels remained high in p53−/− and p21−/− cells even after cells were incubated with VX-680 for 48 h, in contrast to that observed in the wild-type cells.
Total RNA was isolated using the RNeasy kit (Qiagen, Valencia, Calif., USA). The RNA was quantified using spectrophotometric analysis and used for quantitative real-time PCR. The primers used for each target analyzed are available on request. The RNA Master Power SYBR Green Mix (Roche) was used for quantification of mRNA levels.

A375 and HCT116 p53+/+ = test: Annexin V apoptosis assay, p53-positive cell lines; conditions: various concentrations of VX-680
Experimental: Cells were then harvested and stained for annexin V to detect apoptotic cells.
For analysis of apoptosis, cells were harvested without fixation. Apoptosis was evaluated using the annexin V (fluorescein isothiocyanate (FITC))-propidium iodide binding assay (Roche, Indianapolis, Ind., USA). The extent of apoptosis was quantified as a percentage of annexin V-positive cells over the total cell population. Flow cytometric analysis was performed on a BD LSR II System (BD Biosciences, Stockholm, Sweden). Data were analyzed using FlowJo software and ModFit LT (Verity Software House, Topsham, Me., USA).

[2] = test system: A375, U2OS, A549, HCT116 p53+/+, HCT116 p53−/−, MDA-MB-486 and H1299 cells; test: Cell cycle distribution (propidium iodide flow cytometry) in a panel of tumor-derived cell lines after VX-680; conditions: 200 nM VX-680; harvested at 24, 48 and 72 h; p53 wild-type, mutant and deleted lines
Experimental: (a) p53-positive cells (A375, U2OS, A549 and HCT116 p53+/+) and (b) p53-compromised cells (HCT116 p53−/−, […] and H1299) were treated with 200 nM VX-680 and harvested at the indicated time points. Analysis of cell cycle distribution using propidium iodide staining was performed using flow cytometry. Representative DNA profiles are shown. DNA content is indicated. No DNA profile was shown for cells that are 100% apoptotic.
p53 has been implicated in a postmitotic G1 checkpoint in response to various mitotic inhibitors. We examined whether this checkpoint is induced after aurora kinase inhibition by VX-680 and whether tetraploidy is suppressed by wild-type p53 functions. Using a panel of commonly used tumor-derived cell lines expressing either wild-type p53, mutant p53 or a deletion at the p53 gene locus (Table 1), we tested the correlation of p53 gene status to VX-680-induced endoreduplication. These cell lines were treated with VX-680, and harvested for cell cycle analysis at 24, 48 and 72 h.

A549 cells = test: Mitotic index of A549 cells exposed to VX-680; conditions: A549, VX-680 200 nM
Experimental: (B) is a graph showing the Mitotic index of A549 cells exposed to VX-680. A549 cells were incubated with VX-680 (200 nM) and the mitotic cells were counted and expressed as a percentage of total cells count. To aid visualization of the condensed chromosomes, H2B-GFP was expressed in A549. Each data point represents the mean±SD (n=3).

[3] = test system: A549 cells transfected with p53-specific siRNA; test: Cell cycle analysis of A549 cells transfected with p53 siRNA and exposed to VX-680; conditions: A549 with p53 siRNA knockdown, exposed to VX-680
Experimental: (B) Extent of endoreduplication is exacerbated in cells with compromised p53 functions. A549 cells transfected with p53 siRNA (Dharmacon pool) were incubated with VX-680 (200 nM) for the indicated time periods after transfection. […] DNA-dependent cell cycle analysis was performed using flow cytometry.
p53 siRNA oligo 1 (p53si) 5′-[…] GCGUCUU-3′ (SEQ ID NO: 9), cyclin A2 siRNA 5′-[…]-3′ (SEQ ID NO: 10) and cyclin B1 siRNA 5′-[…]-3′ were from Dharmacon (Lafayette, Colo., USA) (SEQ ID NO:11). Cells were plated in six-well dishes overnight in antibiotic-free media. Cells were incubated with Optimen (GIBCO) for an hour before transfection using Lipofectamine 2000 (Invitrogen) and siRNA (30 nM) according to the manufacturer's recommendation. Cells were either harvested at 48 h after transfection or incubated with VX-680 for another 48 h before analysis.

Cc1cc(Nc2cc(N3CCN(C)CC3)nc(Sc3ccc(NC(=O)C4CC4)cc3)n2)[nH]n1 [VX-680, cyclopropane carboxylic acid of {4-[4-(4-methyl-piperazin-1-yl)-6-(5-methyl-2H-pyrazol-3-ylamino)-pyrimidin-2-ylsulphanyl]-phenyl}-amide]
cyclins A2 and B1 mRNAs [1]: greatly reduced | apoptosis (annexin V) (A375 and HCT116 p53+/+): underwent apoptosis | endoreduplication [2]: all tumor cell lines undergo endoreduplication | time at which the mitotic index peaked (A549 cells; after treatment): 16 h | mitotic index (A549 cells; at 48 h): 2% | cells with 16n DNA content [3]: > 15%
